Where “and” joins values, the source holds several entries; their conditions need not be identical. Equal entries are not always repeated.
Legend:
[1] = system: chicken embryo chorioallantoic membrane (CAM) vasculature; assay: Early chicken embryo chorioallantoic membrane (earlyCAM) assay; format: in vivo; details: for Aretry length (pixels) / CAM increase (fold) / Relative artery length (absolute vessel length (pixels)/CAM area (pixels)) / Relative total vessel length (absolute vessel length (pixels)/CAM area (pixels)) / Relative vein length (absolute vessel length (pixels)/CAM area (pixels)) / Total vessel length (pixels) / Vein diameter (pixels) / Vein length (pixels): mean ± SEM, n = 8
Procedure: Vein diameter was included as a measure of vessel growth. Where there was more than one major vein branch, the diameters of both were added together to give a total vein diameter. In the control CAM there were two well developed vein branches of similar diameter. In contrast, in the treated CAM there was a single major vein branch. Total vein diameter is 239 pixels in the control CAM, and only 107 pixels in the treated CAM.
When “compound 1” was applied to the CAM, there were dose responsive reductions in CAM growth and vasculature. The effects on CAM growth and vessel parameters were expressed as pixel measures (Table 1) and also as a percentage of the vehicle treated control group (FIG. 1). Vein lengths were reduced at all dose levels of “compound 1”, both in pixel and percentage terms, with a reduction to 67% of control at 5 nmol (p<0.05). […] When artery and vein lengths were combined to give total vessel length there was a significant reduction at the 5 nmol level (FIG. 1; p<0.05). A strong trend to reduced CAM growth with increasing doses of “compound 1” was also present.

SSTR-3 = molecular target: T1, SSTR-3 (Homo sapiens, UniProt P32745); assay: Radioligand binding screen against somatostatin subtype SSTR-3
T1 construct: expressed in transfected cells
T1 sequence (P32745 whole entry): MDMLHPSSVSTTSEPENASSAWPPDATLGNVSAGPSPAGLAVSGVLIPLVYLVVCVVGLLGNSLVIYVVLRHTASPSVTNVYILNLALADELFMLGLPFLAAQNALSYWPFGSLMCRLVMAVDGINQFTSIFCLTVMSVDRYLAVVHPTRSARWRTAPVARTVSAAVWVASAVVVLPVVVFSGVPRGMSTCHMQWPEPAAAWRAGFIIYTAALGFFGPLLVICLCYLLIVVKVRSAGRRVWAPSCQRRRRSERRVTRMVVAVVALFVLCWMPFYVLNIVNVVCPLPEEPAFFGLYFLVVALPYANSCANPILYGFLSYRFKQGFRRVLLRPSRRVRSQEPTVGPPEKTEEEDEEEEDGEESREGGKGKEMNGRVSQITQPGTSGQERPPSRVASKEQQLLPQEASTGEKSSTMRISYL
Procedure: Receptor membrane preparations containing the desired cloned receptor (for example cloned human somatostatin receptor subtype 5, SSTR5) and radio-labeled ligand (for example 3-[^125I]iodotyrosyl^11 Somatostatin-14)) were diluted at the concentration required for testing and according to the specific parameters associated with the selected receptor-ligand combination, including receptor Bmax, ligand Kd and any other parameters necessary to optimize the experimental conditions. When tested for competition activity to the reference ligand, “compound 1” was mixed with membrane suspension and the radiolabeled reference ligand (with or without an excess of cold ligand to the receptor for determination of non-specific binding) and incubated at the temperature required by internal standard operating procedures. Following incubation, the binding reaction was stopped by the addition of ice-cold washing buffer and filtered on appropriate filters, which are then counted. Data analysis and curve-fitting was performed with XLfit (IDBS).
10 mM solutions of test compounds in 100% DMSO were prepared. ˜160 μl was used for each dilution (20 μl/well in triplicate).
A 1.25 mM assay stock was prepared by making a 1:8 dilution of the 10 mM solution. (To 30 μL of the 10 mM solution was added 210 μL milli-Q H2O. A 1:5 dilution series in milli-Q H2O was then prepared.
In primary screening experiments compounds were tested in duplicate for a particular concentration.

COC[C@H]1O[C@H](OCCc2ccccc2)[C@H](NC(=O)CCCN)[C@@H](OCc2ccc3ccccc3c2)[C@@H]1O [Compound 1]
Aretry length (pixels) ([1]; 0.2 nmol): 1870 ± 109^ pixels
CAM increase (fold) ([1]; 0.2 nmol): 9.9 ± 0.9 fold
Relative artery length (absolute vessel length (pixels)/CAM area (pixels)) ([1]; 0.2 nmol): 43.0 ± 3.7
Relative total vessel length (absolute vessel length (pixels)/CAM area (pixels)) ([1]; 0.2 nmol): 79.9 ± 5.8
Relative vein length (absolute vessel length (pixels)/CAM area (pixels)) ([1]; 0.2 nmol): 36.9 ± 3.4
Total vessel length (pixels) ([1]; 0.2 nmol): 3498 ± 222^ pixels
Vein diameter (pixels) ([1]; 0.2 nmol): 191 ± 10 pixels
Vein length (pixels) ([1]; 0.2 nmol): 1628 ± 183^ pixels
Artery length as percentage of vehicle treated control (maximal reduction) ([1]; 1 nmol): 86 % of control
Aretry length (pixels) ([1]; 1 nmol): 1544 ± 214^ pixels
CAM increase (fold) ([1]; 1 nmol): 9.9 ± 0.8 fold
Relative artery length (absolute vessel length (pixels)/CAM area (pixels)) ([1]; 1 nmol): 34.7 ± 4.7
Relative total vessel length (absolute vessel length (pixels)/CAM area (pixels)) ([1]; 1 nmol): 71.3 ± 6.3
Relative vein length (absolute vessel length (pixels)/CAM area (pixels)) ([1]; 1 nmol): 36.5 ± 2.4
Total vessel length (pixels) ([1]; 1 nmol): 3169 ± 341^ pixels
Vein diameter (pixels) ([1]; 1 nmol): 187 ± 15 pixels
Vein length (pixels) ([1]; 1 nmol): 1625 ± 166^1 pixels
Reduction in vein diameter versus control ([1]; 5 nmol): approximately 25%
Aretry length (pixels) ([1]; 5 nmol): 1510 ± 196^ pixels
CAM increase (fold) ([1]; 5 nmol): 8.9 ± 0.8 fold
Relative artery length (absolute vessel length (pixels)/CAM area (pixels)) ([1]; 5 nmol): 36.4 ± 3.0
Relative total vessel length (absolute vessel length (pixels)/CAM area (pixels)) ([1]; 5 nmol): 71.6 ± 3.7
Relative vein length (absolute vessel length (pixels)/CAM area (pixels)) ([1]; 5 nmol): 35.1 ± 2.6
Total vessel length (pixels) ([1]; 5 nmol): 2939 ± 292^1 pixels
Vein length (pixels) ([1]; 5 nmol): 1429 ± 141^1 pixels
Vein diameter (pixels) ([1]; 5 nmol, p = 0.057): 157 pixels and 157 ± 23 pixels
Vein length as percentage of vehicle treated control ([1]; 5 nmol, p<0.05): 67 % of control
Total vein diameter ([1]; single treated CAM (control CAM 239 pixels), dose not stated): 107 pixels
IC50 (SSTR-3; concentration required to displace 50% of the competitive radioligand, read-out: IC50 SSTR3): 8.5 µM
selectivity SSTR3 (SSTR-3; normalized IC50: lowest IC50 for a compound = 1): 26.4
Hillslope SSTR3 (SSTR-3; slope of binding curve): 1.04
